Experimental data as given in PubChem BioAssay (NCI).
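Five concentrations, 48 hours, 96-well plates. At the GI50, growth is halved. At the TGI there is no net growth.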

Key:
Experiment in all cases: NCI anticancer screen, dose series, 48 h
[1] = tested on: UACC-62 melanoma
[2] = tested on: TK-10 renal
[3] = tested on: MOLT-4 leukemia
[4] = tested on: CCRF-CEM leukemia
[5] = tested on: A498 renal
[6] = tested on: UO-31 renal
[7] = tested on: ACHN renal
[8] = tested on: MDA-N
[9] = tested on: SK-MEL-28 melanoma
[10] = tested on: SK-OV-3 ovarian

Row | Compound | TGI [1] [µM] | TGI [2] [µM] | TGI [3] [µM] | TGI [4] [µM] | TGI [5] [µM] | TGI [6] [µM] | TGI [7] [µM] | TGI [8] [µM] | TGI [9] [µM] | TGI [10] [µM] | GI50 [1] [µM]
1 | COC(=O)[C@@H](NS(=O)(=O)CC12CCC(CC1)C2(C)C)C(C)(C)C | > 100 | > 100 | 70 | > 100 | > 100 | > 100 | > 100 | > 100 | > 100 | > 100 | 
2 | COc1cccc(NC(=O)CC(=O)n2nc(-c3ccccc3)c(N=Nc3ccc(Cl)cc3)c2-c2ccccc2)c1 | > 72.7 | > 100 | > 59.3 | > 39.6 | > 83.1 | 30.8 | > 100 | > 100 | > 100 | > 79.9 | 
3 | CCOC(=O)c1c(N2CCCC2)[nH]c(=O)c(C(c2ccc(N(C)C)cc2)c2c(O)c(C(=O)OCC)c(N3CCCC3)[nH]c2=O)c1O | > 100 | > 100 | > 100 | > 100 | > 100 | > 100 | > 100 | > 100 | > 100 | > 100 | 
4 | CC(C)OP(=O)(OC(C)C)C(C(C)C)N(C)C(N)=NC#N (centres undefined) | > 100 | > 100 | > 100 | > 100 | > 100 | > 100 | > 100 | > 100 | > 100 | > 100 | 
5 | CCCC1=C(OC)C(=O)c2c(C)cc(Cl)nc2C1=O | 13.8 | 34.5 | 3.72 | 2.77 | 35 | 26.5 | 17.4 | 3.33 | 16.7 | 31 | 
6 | c1ccc2c(Nc3ncco3)cccc2c1 | > 10 | > 10 | > 10 | > 10 | > 10 | > 10 | > 10 | > 10 | > 10 | > 10 | 
7 | COc1cccc2c1OC1c3ccccc3OCC1(O)C2 (centres undefined) | > 100 | > 100 | > 100 | > 100 | > 100 | > 100 | > 100 | > 100 |  | > 100 | 
8 | [N-]=[N+]=Nc1nc2ccccc2c(N=[N+]=[N-])c1Cl | > 100 | > 100 | > 100 | > 100 | 46.9 | > 100 | > 100 | > 100 | > 100 | > 100 | 
9 | O=c1[nH]cc(N=Cc2cc(Cl)ccc2O)c(=O)[nH]1 | 71.7 | > 100 | 63.1 | 19 | > 100 | > 100 | 61.6 | > 100 | 70.1 | 59.4 | 
10 | C=CC(C)(C)/C=C/c1ccc(O)cc1 | > 100 | > 100 | > 100 | > 100 | > 100 |  | > 100 | > 100 | > 100 | > 100 | 
11 | O=c1cc(-c2ccccc2)oc2c1ccc1[nH]c3ccccc3c(=O)c12 | > 100 | > 100 | > 100 | > 100 | > 100 | > 100 | > 100 | > 100 | > 100 | > 100 | 
12 | O=CC(O)C(O)C(O)C(O)COC(=O)NCCCCC(=O)C(F)(F)C(F)(F)C(F)(F)C(F)(F)C(F)(F)C(F)(F)C(F)(F)F (centres undefined) | 35.1 | > 100 | 31.1 | 56 | 47.5 | > 100 | > 100 | 73.5 | > 100 | 56.4 | 
13 | CC/C=C/c1cc2c(cc1O)CCC1C2CC[C@@]2(C)C1CC[C@@H]2O (some centres undefined) | 7.91 | 4.72 | 18.8 | 14.8 | 9.03 | 18.3 | 17.9 | 0.637 | 24.1 | 16.7 | 0.485
14 | CC(=O)OCC1OC(SC2=NC(=O)CS2)C(OC(C)=O)C(OC(C)=O)C1OC(C)=O (centres undefined) | > 100 | > 100 | > 100 | > 100 | > 100 | > 100 | > 100 | > 100 | > 100 | > 100 | 
15 | O=C1Nc2cccc(Cl)c2/C1=C\c1c(-c2ccccc2)nc2n1CCS2 | 45.6 | 45.1 | 39.4 | 33.1 | 39.4 | 48.8 | 32.3 | 40.6 | 44.7 | 65.9 | 
16 | CC(C)(C)OC(=O)C(C#N)C(=O)c1ccc(C(=O)O)[nH]1 (centres undefined) | 45.7 | > 100 | > 100 | > 100 | 77.2 | > 100 | > 100 | > 100 | > 100 | > 100 | 
17 | CC(=O)CC(=O)N1CCSC1=S | > 10 | > 10 | > 10 | > 10 | > 10 | > 10 | > 10 | > 10 | > 10 | > 10 | 
18 | C=C(CN(CC)CC)C1(c2ccccc2)CC2(CCCC2)C(=O)O1 (centres undefined) | > 100 | > 100 | > 100 | > 100 | > 100 | > 100 | > 100 | > 100 | > 100 | > 100 | 
